Laboratory results as given in patent US20240158385A1, “NOVEL COMPOUNDS” (Cerevance, Inc., priority 2021, published 2024).

Molecular target: T1, human KCNK13 (Homo sapiens, UniProt Q9HB14)
T1 construct: expressed in transfected cells
T1 sequence (Q9HB14 1-408): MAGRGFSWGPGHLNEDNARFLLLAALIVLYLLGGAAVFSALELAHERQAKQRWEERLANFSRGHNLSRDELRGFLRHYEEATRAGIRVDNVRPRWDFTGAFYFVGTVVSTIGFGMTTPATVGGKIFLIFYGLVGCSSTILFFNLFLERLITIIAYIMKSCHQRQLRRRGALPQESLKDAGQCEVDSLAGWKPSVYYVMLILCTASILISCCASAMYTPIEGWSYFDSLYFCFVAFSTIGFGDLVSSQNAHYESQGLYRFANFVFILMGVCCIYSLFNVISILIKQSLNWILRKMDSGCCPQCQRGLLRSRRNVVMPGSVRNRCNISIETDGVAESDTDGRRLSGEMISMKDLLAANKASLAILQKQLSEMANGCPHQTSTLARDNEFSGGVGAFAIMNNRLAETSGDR
Assay: KCNK13 antagonist activity, thallium (Tl+) flux FLIPR assay
Format: cell-based
Conditions: HEK 293 cells stably expressing human KCNK13; Tl+ sensitive dye, FLIPR; compounds 15 minutes prior to thallium sulfate; 10 point half log curves from 10 PM; read-out: hKCNK13 IC50
Method: KCNK13 antagonist activity was determined by measuring changes in intracellular Thallium (Tl^+) concentrations using a Tl^+ sensitive fluorescent dye. The changes in fluorescent signal were monitored by Fluorescent Imaging Plate Reader (FLIPR™) technology available from Molecular Devices, LLC, US. KCNK13 mediated increases in intracellular Tl+concentration were readily detected by addition of a thallium sulfate stimulus. 24 hours prior to the assay, human embryonic kidney 293 cells (HEK 293 cells) stably expressing human KCNK13 were seeded in cell culture medium in PDL coated black, clear-bottom 384-well plates (commercially available from Corning Inc., 356663) and grown overnight at 37° C., 5% CO2. On the day of the assay, cell culture media was removed and cells were loaded with potassium dye (commercially sold by Molecular Devices, LLC, US, R8222) for 1 hour at room temperature in the dark. Test compounds (at 10 point half log concentration response curves from […]) were added to cells for 15 minutes prior to the addition of thallium sulfate to all wells. The IC50 values were determined from ten point concentration response curves. Curves were generated using the average of two wells for each data point.

Structure (SMILES) | IC50 [nM]
CC(c1cccnc1)n1c(-c2nonc2N)nc2ccccc21 (racemic) [Example 85, rac-4-[1-[1-(pyridin-3-yl)ethyl]benzimidazol-2-yl]-1,2,5-oxadiazol-3-amine] | < 5000
Nc1nonc1-c1nc2ccc(F)cc2n1Cc1cncnc1 (single isomer, unassigned) [Example 4, 4-[6-fluoro-1-(pyrimidin-5-ylmethyl)benzimidazol-2-yl]-1,2,5-oxadiazol-3-amine] | < 50
Nc1nonc1-c1nc2cc(F)ccc2n1Cc1cncnc1 (single isomer, unassigned) [Example 5, 4-[5-fluoro-1-(pyrimidin-5-ylmethyl)benzimidazol-2-yl]-1,2,5-oxadiazol-3-amine] | < 100
N#Cc1ncc(Cn2c(-c3nonc3N)nc3cccc(F)c32)cn1 (single isomer, unassigned) [Example 25, 5-[[2-(4-amino-1,2,5-oxadiazol-3-yl)-7-fluoro-benzimidazol-1-yl]methyl]pyrimidine-2-carbonitrile] | < 50
N#Cc1ncc(Cn2c(-c3nonc3N)nc3c(F)cccc32)cn1 (single isomer, unassigned) [Example 26, 5-[[2-(4-amino-1,2,5-oxadiazol-3-yl)-4-fluoro-benzimidazol-1-yl]methyl]pyrimidine-2-carbonitrile] | < 100
[2H]C([2H])(c1cccnc1)n1c(-c2nonc2C)nc2c(F)cccc21 (single isomer, unassigned) [Example 30, 3-[1-[dideuterio(pyridin-3-yl)methyl]-4-fluoro-benzimidazol-2-yl]-4-methyl-1,2,5-oxadiazole] | < 50
[2H]C([2H])(c1cccnc1)n1c(-c2nonc2C)nc2cccc(F)c21 (single isomer, unassigned) [Example 31, 3-[1-[dideuterio(pyridin-3-yl)methyl]-7-fluoro-benzimidazol-2-yl]-4-methyl-1,2,5-oxadiazole] | < 50
Cc1nonc1-c1nc2c(Cl)cccc2n1Cc1ccc(C#N)nc1 (single isomer, unassigned) [Example 61, 5-[[4-chloro-2-(4-methyl-1,2,5-oxadiazol-3-yl)benzimidazol-1-yl]methyl]pyridine-2-carbonitrile] | < 200
Cc1nonc1-c1nc2cccc(Cl)c2n1Cc1ccc(C#N)nc1 (single isomer, unassigned) [Example 62, 5-[[7-chloro-2-(4-methyl-1,2,5-oxadiazol-3-yl)benzimidazol-1-yl]methyl]pyridine-2-carbonitrile] | < 200

Continued, values first:

IC50 [nM] | Structure (SMILES)
< 50 | Nc1nonc1-c1nc2c(F)cccc2n1Cc1cccnc1 (single isomer, unassigned) [Example 87, 4-[4-fluoro-1-(pyridin-3-ylmethyl)benzimidazol-2-yl]-1,2,5-oxadiazol-3-amine]
< 50 | Nc1nonc1-c1nc2ccc(F)cc2n1Cc1cccnc1 (single isomer, unassigned) [Example 118, 4-[6-fluoro-1-(pyridin-3-ylmethyl)benzimidazol-2-yl]-1,2,5-oxadiazol-3-amine]
< 50 | Nc1nonc1-c1nc2cc(F)ccc2n1Cc1cccnc1 (single isomer, unassigned) [Example 119, 4-[5-fluoro-1-(pyridin-3-ylmethyl)benzimidazol-2-yl]-1,2,5-oxadiazol-3-amine]
< 100 | Nc1nonc1-c1nc2c(F)cccc2n1Cc1ccncc1 (single isomer, unassigned) [Example 121, 4-[4-fluoro-1-(pyridin-4-ylmethyl)benzimidazol-2-yl]-1,2,5-oxadiazol-3-amine]
< 50 | Cc1nonc1-c1nc2cccc(F)c2n1Cc1cccnc1 (single isomer, unassigned) [Example 122, 3-[7-fluoro-1-(pyridin-3-ylmethyl)benzimidazol-2-yl]-4-methyl-1,2,5-oxadiazole]
< 50 | Cc1nonc1-c1nc2c(F)cccc2n1Cc1cccnc1 (single isomer, unassigned) [Example 123, 3-[4-fluoro-1-(pyridin-3-ylmethyl)benzimidazol-2-yl]-4-methyl-1,2,5-oxadiazole]
